This note sets out measurements from patent publication US20150343060A1, “TREATMENT OF CIRCULATING TUMOR CELLS USING AN EXTRACORPOREAL DEVICE” (priority 2014, published 2015).

The experiment has as its system A431 cells. As to the kind of experiment: Probe incubation, irradiation at 24 J/cm^2 and NucleoCounter NC-3000 cell vitality assay after about 24 hours. It counts as cell-based, human. The following applies: for Cell Number / Cell Vitality: 24 J/cm^2, about 24 hours after irradiation, EGF probe 0.5 μM, panitumumab probe 0.1 μM. The protocol: A431 cells were plated and incubated with either probe for 5 minutes, 10 minutes or 20 minutes prior to washing and irradiation at 24 J/cm^2. […] After irradiation, the cells were cultured at 37° C., 5% CO2 for approximately 24 hours. The NucleoCounter® NC-3000™ cell vitality assay (Chemometec, Allerød, Denmark) was performed.

On to IRDye® 700DX-panitumumab, for which the “Cell Number” value (5 minutes probe incubation) is recorded as 675,000 cells/mL, the “Cell Number” value (10 minutes probe incubation) is 323,000 cells/mL and the “Cell Number” value (20 minutes probe incubation) is on record as 550,000 cells/mL. Also, the “Cell Vitality” value (5 minutes probe incubation) worked out at 44.2%, the “Cell Vitality” value (10 minutes probe incubation) is on record as 34% and the “Cell Vitality” value (20 minutes probe incubation) came out at 31%. In addition, for the setting “20 minutes vs. 5 minutes incubation, 24 J/cm^2”, the “effect of longer incubation time on cell death” value was “increased the number of cells undergoing cell death”. Also, under “average over 5, 10 and 20 minutes incubation, 24 J/cm^2”, the “cell death averaged over the time periods” value is recorded as “about 60%”.
